Laboratory results taken from US4312874A, “Antibacterial compounds, processes for their preparation and compositions containing them” (Beecham Group Limited, priority 1979, dated 1982).
Values after ≈ are worked out from the molar mass of the structure shown. Read-outs that look alike come from different tables or passages of the source.

Experiments:
E. coli NCTC 10418 [1] = test: MIC by serial dilution in nutrient agar with 5% chocolated horse blood; format: cell-based; conditions: Escherichia coli, NCTC10418
P. mirabilis 889 = test: as above; format: cell-based; conditions: Proteus mirabilis
K. aerogenes A = test: as above; format: cell-based; conditions: Klebsiella aerogenes
Ps. aeruginosa 10662 = test: as above; format: cell-based; conditions: Pseudomonas aeruginosa
[2] = system: Pasteurella multocida 1633; test: as above; format: cell-based; conditions: Table 1
[3] = system: Haemophilus influenzae Q1; test: as above; format: cell-based; conditions: Table 1
Staph. aureus Oxford = test: as above; format: cell-based; conditions: Staphylococcus aureus; Table 1
Staph. aureus Russell = test: as above; format: cell-based; conditions: Staphylococcus aureus; Table 1
Staph. aureus W2827 = test: as above; format: cell-based; conditions: Staphylococcus aureus, Table 1
Strep. faecalis = test: as above; format: cell-based; conditions: Enterococcus faecalis
Strep. pyogenes B 2788 = test: as above; format: cell-based; conditions: Streptococcus pyogenes, B2788; Table 1
Strep. pyogenes C 2761 = test: as above; format: cell-based; conditions: Streptococcus pyogenes, C2761; Table 1
Strep. pneumoniae CN33 = test: as above; format: cell-based; conditions: Streptococcus pneumoniae, Table 1
M.suipneumoniae NB12 = test: in vitro MIC by serial dilution in Friis modified agarose medium; format: cell-based; conditions: Mesomycoplasma hyopneumoniae, Table 3
M. siupneumoniae HK(2) = test: as above; format: cell-based; conditions: Table 3
[4] = system: M. suipneumoniae J2206/183b; test: as above; format: cell-based; conditions: Mesomycoplasma hyopneumoniae, Table 3
M. suipneumoniae MS 16 = test: as above; format: cell-based; conditions: Mesomycoplasma hyopneumoniae, MS16; Table 3
[5] = system: M. suipneumoniae PW/C/210; test: as above; format: cell-based; conditions: Mesomycoplasma hyopneumoniae; Table 3
M. suipneumoniae LABER = test: as above; format: cell-based; conditions: Mesomycoplasma hyopneumoniae; Table 3
M. suipneumoniae UCD 1 = test: as above; format: cell-based; conditions: Mesomycoplasma hyopneumoniae, UCD1; Table 3
M. suipneumoniae TAM 6N = test: as above; format: cell-based; conditions: Mesomycoplasma hyopneumoniae, TAM6N; Table 3
M. hyorhinis ATCC 25021 = test: as above; format: cell-based; conditions: Mesomycoplasma hyorhinis, ATCC25021; Table 3
M. hyosnoviae ATCC 25591 = test: as above; format: cell-based; conditions: Table 3
M. bovis NCTC 10131 = test: microbe, parasite or virus in culture; format: cell-based; conditions: NCTC10131
[6] = system: M. bovigenitalium ATCC 14173; test: in vitro MIC by serial dilution in Friis modified agarose medium; format: cell-based
M. dispar NCTC 10125 = test: as above; format: cell-based
M. gallisepticum S6 = test: as above; format: cell-based; conditions: Mycoplasmoides gallisepticum, Table 3
M. pneumoniae ATCC 15492 = test: as above; format: cell-based; conditions: Mycoplasmoides pneumoniae, ATCC15492; Table 3
[7] = Serum binding by ultrafiltration; format: in vitro ADME; conditions: pig, 8 mcg/ml, read-out: % Bound to Pig Serum (converted)
Experimental: Serum binding was assessed by ultrafiltration of procine serum containing compounds at 8 mcg/ml, and through an Amicon CF50A ultrafiltration cone. Separation of ultrafiltrate was achieved by centrifugation. Unbound concentrations of compound were measured in the ultrafiltrate by microbiological assay (B. subtilis ATCC 6633) against standards prepared in saline.

E. coli NCTC 10418 [8] = test: MIC by agar dilution, veterinary bacteria; conditions: Escherichia coli, NCTC10418, 24 h
E. coli E1 = test: MIC by agar dilution, veterinary bacteria; conditions: Escherichia coli, E1, 24 h
S.dublin S7 = test: MIC by agar dilution, veterinary bacteria; conditions: Salmonella enterica, S7, 24 h
Bord. bronchiseptica B08 = test: MIC by agar dilution, veterinary bacteria; conditions: Bordetella bronchiseptica, B08, 24 h
Past. multocida PA1 = test: MIC by agar dilution, veterinary bacteria; conditions: Pasteurella multocida, PA1, 24 h
Past. multocida PA2 = test: MIC by agar dilution, veterinary bacteria; conditions: Pasteurella multocida, PA2, 24 h
[9] = system: Corynebacterium pyogenes CY1; test: MIC by agar dilution, veterinary bacteria; conditions: CY1, 24 h
[10] = system: Staph. aureus B4 (pen resis); test: MIC by agar dilution, veterinary bacteria; conditions: Staphylococcus aureus, 24 h
[11] = system: Staph. aureus 152 (pen sens); test: MIC by agar dilution, veterinary bacteria; conditions: Staphylococcus aureus, 24 h
[12] = system: Strep. suis (group D) SPS11; test: MIC by agar dilution, veterinary bacteria; conditions: Streptococcus suis, 24 h
Strep. uberis SPU1 = test: MIC by agar dilution, veterinary bacteria; conditions: Streptococcus uberis, SPU1, 24 h
Strep. agalactiae SPA1 = test: MIC by agar dilution, veterinary bacteria; conditions: Streptococcus agalactiae, SPA1, 24 h

## CC(=O)C=C(C)CC1OCC(CC2OC2C(C)C(C)O)C(O)C1O [Example 1, 1-[3R,4R-Dihydroxy-5S-(2S,3S-epoxy-5S-hydroxy-4S-methylhexyl)-2,3,5,6-tetrahydropyran-2-S-yl]-2-methylpent-2E-en-4-one]
E. coli NCTC 10418 [1]; Table 1, read-out: MIC
  MIC: > 100 µg/mL
P. mirabilis 889; Table 1, read-out: MIC
  MIC: 50 µg/mL (≈ 146 µM)
K. aerogenes A; Table 1, read-out: MIC
  MIC: > 100 µg/mL
Ps. aeruginosa 10662; Table 1, read-out: MIC
  MIC: > 100 µg/mL
[2]
  MIC: 5 µg/mL (≈ 14.6 µM)
[3]
  MIC: 0.5 µg/mL (≈ 1.46 µM)
Staph. aureus Oxford
  MIC: 1 µg/mL (≈ 2.92 µM)
Staph. aureus Russell
  MIC: 5 µg/mL (≈ 14.6 µM)
Staph. aureus W2827
  MIC: > 100 µg/mL
Strep. faecalis; Table 1, read-out: MIC
  MIC: > 100 µg/mL
Strep. pyogenes B 2788
  MIC: 50 µg/mL (≈ 146 µM)
Strep. pyogenes C 2761
  MIC: 100 µg/mL (≈ 292 µM)
Strep. pneumoniae CN33
  MIC: 25 µg/mL (≈ 73 µM)
M.suipneumoniae NB12
  MIC: > 10 µg/mL
M. siupneumoniae HK(2)
  MIC: > 10 µg/mL
[4]
  MIC: > 10 µg/mL
M. suipneumoniae MS 16
  MIC: 10 µg/mL (≈ 29.2 µM)
[5]
  MIC: 10 µg/mL (≈ 29.2 µM)
M. suipneumoniae LABER
  MIC: 5 µg/mL (≈ 14.6 µM)
M. suipneumoniae UCD 1
  MIC: > 10 µg/mL
M. suipneumoniae TAM 6N
  MIC: > 10 µg/mL
M. hyorhinis ATCC 25021
  MIC: 10 µg/mL (≈ 29.2 µM)
M. hyosnoviae ATCC 25591
  MIC: 5 µg/mL (≈ 14.6 µM)
M. bovis NCTC 10131
  MIC: 0.25 µg/mL (≈ 0.73 µM)
[6]; Table 3, read-out: MIC
  MIC: 0.5 µg/mL (≈ 1.46 µM)
M. dispar NCTC 10125; Table 3, read-out: MIC
  MIC: 2.5 µg/mL (≈ 7.3 µM)
M. gallisepticum S6
  MIC: > 10 µg/mL
M. pneumoniae ATCC 15492
  MIC: > 10 µg/mL
[7]
  fraction unbound: 0.852
E. coli NCTC 10418 [8]
  MIC: > 80 µg/mL
E. coli E1
  MIC: > 80 µg/mL
S.dublin S7
  MIC: > 80 µg/mL
Bord. bronchiseptica B08
  MIC: > 80 µg/mL
Past. multocida PA1
  MIC: 5 µg/mL (≈ 14.6 µM)
Past. multocida PA2
  MIC: 5 µg/mL (≈ 14.6 µM)
[9]
  MIC: > 80 µg/mL
[10]
  MIC: 10 µg/mL (≈ 29.2 µM)
[11]
  MIC: 10 µg/mL (≈ 29.2 µM)
[12]
  MIC: > 80 µg/mL
Strep. uberis SPU1
  MIC: 20 µg/mL (≈ 58.4 µM)
Strep. agalactiae SPA1
  MIC: > 80 µg/mL

## CCC(=O)C=C(C)CC1OCC(CC2OC2C(C)C(C)O)C(O)C1O [Example 2, 1-[3R,4R-Dihydroxy-5S-(2S,3S-epoxy-5-S-hydroxy-4S-methylhexyl)tetrahydropyran-2S-yl]-2-methylhex-2E-en-4-one]
E. coli NCTC 10418 [1]
  MIC: > 50 µg/mL
P. mirabilis 889
  MIC: > 50 µg/mL
K. aerogenes A
  MIC: > 50 µg/mL
Ps. aeruginosa 10662
  MIC: > 50 µg/mL
[2]
  MIC: 2.5 µg/mL (≈ 7.01 µM)
[3]
  MIC: 0.2 µg/mL (≈ 0.561 µM)
Staph. aureus Oxford
  MIC: 1.2 µg/mL (≈ 3.37 µM)
Staph. aureus Russell
  MIC: 2.5 µg/mL (≈ 7.01 µM)
Staph. aureus W2827
  MIC: 2.5 µg/mL (≈ 7.01 µM)
Strep. faecalis
  MIC: > 50 µg/mL
Strep. pyogenes B 2788
  MIC: 25 µg/mL (≈ 70.1 µM)
Strep. pyogenes C 2761
  MIC: 25 µg/mL (≈ 70.1 µM)
Strep. pneumoniae CN33
  MIC: 12.5 µg/mL (≈ 35.1 µM)
M.suipneumoniae NB12
  MIC: 2.5 µg/mL (≈ 7.01 µM)
M. siupneumoniae HK(2)
  MIC: 2.5 µg/mL (≈ 7.01 µM)
[4]
  MIC: 5 µg/mL (≈ 14 µM)
M. suipneumoniae MS 16
  MIC: 2.5 µg/mL (≈ 7.01 µM)
[5]
  MIC: 2.5 µg/mL (≈ 7.01 µM)
M. suipneumoniae LABER
  MIC: 2.5 µg/mL (≈ 7.01 µM)
M. suipneumoniae UCD 1
  MIC: 5 µg/mL (≈ 14 µM)
M. suipneumoniae TAM 6N
  MIC: 2.5 µg/mL (≈ 7.01 µM)
M. hyorhinis ATCC 25021
  MIC: 2.5 µg/mL (≈ 7.01 µM)
M. hyosnoviae ATCC 25591
  MIC: 2.5 µg/mL (≈ 7.01 µM)
M. bovis NCTC 10131
  MIC: 0.1 µg/mL (≈ 0.281 µM)
[6]
  MIC: 0.1 µg/mL (≈ 0.281 µM)
M. dispar NCTC 10125
  MIC: 0.5 µg/mL (≈ 1.4 µM)
M. gallisepticum S6
  MIC: > 10 µg/mL
M. pneumoniae ATCC 15492
  MIC: > 10 µg/mL
[7]
  fraction unbound: 0.739
E. coli NCTC 10418 [8]
  MIC: > 40 µg/mL
E. coli E1
  MIC: > 40 µg/mL
S.dublin S7
  MIC: > 40 µg/mL
Bord. bronchiseptica B08
  MIC: > 40 µg/mL
Past. multocida PA1
  MIC: 0.625 µg/mL (≈ 1.75 µM)
Past. multocida PA2
  MIC: 0.312 µg/mL (≈ 0.875 µM)
[9]
  MIC: > 40 µg/mL
[10]
  MIC: 0.625 µg/mL (≈ 1.75 µM)
[11]
  MIC: 0.312 µg/mL (≈ 0.875 µM)
[12]
  MIC: > 40 µg/mL
Strep. uberis SPU1
  MIC: 5 µg/mL (≈ 14 µM)
Strep. agalactiae SPA1
  MIC: 20 µg/mL (≈ 56.1 µM)
